Assay results from patent publication US20170121687A1, “METHODS OF CELLULAR REPROGRAMMING” (Agency for Science, Technology and Research, priority 2014, published 2017).

B1: KGF: keratinocyte growth factor (protein, UniProt P21781 32-194, looked up)
Fibroblast growth factor 7: CNDMTPEQMATNVNCSSPERHTRSYDYMEGGDIRVRRLFCRTQWYLRIDKRGKVKGTQEMKNNYNIMEIRTVAVGIVAIKGVESEFYLAMNKEGKLYAKKECNEDCNFKELILENHYNTYASAKWTHNGGEMFVALNQKGIPVRGKKTKKEQKTAHFLPMAIT

System: IMR90
Assay: Integrin ligation step with other extracellular matrices and growth factors after antibody induction
Type: cell-based, human
Details: FIG. 12-15
Protocol: Cells were detached using conventional cell culture techniques and 60000 suspended cells in 100 μL media were incubated with 2 μg of each of the following antibodies—Anti-Integrin alpha V [272-17E6] (Abcam, USA), Anti-Integrin alpha 5 [P1D6]—Azide free (Abcam, USA), Anti-Integrin beta 3 antibody [25E11], Anti-Integrin αV/β5 (P1F6) L (Santa Cruz Biotechnology, USA), Anti-Integrin αVβ6, clone 10D5 (Merck, USA)—for 30 minutes in a 37° C. incubator. Control antibody used was normal mouse IgG1 antibody (Santa Cruz Biotechnology, USA). The volume of the cell suspension was brought up to 250 μL for subsequent seeding in a 48-well tissue culture plate. Two days after antibody treatment, extracellular matrix was added into the media. Reprogramming of U251 cells followed a modified procedure, where a 3-antibody combination comprising Anti-Integrins αv, αvβ5 and αvβ6 was used. Two days after antibody treatment, the cells were transferred to ECM that had been pre-coated onto the culture wells. Extracellular matrices used are basement membrane matrix, Geltrex (Life Technologies, USA), laminin 332 and laminin 511 (Biolamina, Sweden). One day after addition of extracellular matrix, the media was changed to one of the following growth factors-supplemented media—1) SKP media made up of DMEM/F12 (Life Technologies, USA) supplemented with 1× B27 supplement (Life Technologies, USA), 40 ng/mL bFGF, 20 ng/mL EGF (Life Technologies, USA); 2) mTESR2 (Stemcell Technologies, USA).
Cells were lysed for RNA using TRIzol® Reagent (Invitrogen, USA) following manufacturer's instructions. Purified RNA was reverse transcribed into cDNA using iScript™ cDNA synthesis kit (Bio-Rad, USA). The reaction was carried out in a 20 μL volume containing 4 μL 5× iScript reaction mix, 1 μL iScript reverse transcriptase, RNA template (≦1000 ng total RNA) and nuclease free water (variable). The complete reaction mix was incubated for at 5 minutes at 25° C., 30 minutes at 42° C., 5 minutes at 85° C. followed by holding at 4° C. (optional).
Reaction was performed on iQ5 multi-colour real-time PCR detection system (Bio-Rad, USA) using the iTaq™ Universal SYBR® Green supermix (Bio-Rad, USA). The 20 μL volume reaction component includes 10 μL iTaq™ Universal SYBR® Green supermix, 1 μL of primer mix (5 μM forward primer, 5 μM reverse primer), 1 to 100 ng template and nuclease free water (variable).
The reaction conditions were as follows: 30 sec at 95° C., followed by 40 cycles of 15 sec at 95° C. and 30 sec at 60° C. […] Relative quantization of target mRNA expression, normalized to an endogenous control and relative to a calibrator, was calculated using the mathematical expression for fold change 2-ΔΔCt (fold change).

Molecule	expression of MET and stemness markers
HGF: hepatocyte growth factor	reduced expression of both MET and stemness markers
Laminin 511: extracellular matrix (Biolamina, Sweden) used during the integrin ligation step	positively influenced
Laminin 521: extracellular matrix used during the integrin ligation step	positively influenced
B1	did not appear to significantly affect
